Patent publication US20050266014A1, “Tumor antigen based on products of the tumor suppressor gene WT1” (HARUO SUGIYAMA, priority 1998, published 2005)
Like-named read-outs stand apart in the source and are kept apart here. No end group written: not given here.

Legend:
K^b of MHC class I = target: T1, K^b of MHC class I (Mus musculus, UniProt P01901); assay: Binding of peptides to K^b on RMA-S cells (fluorescent antibody staining, binding dissociation constant); settings: peptide 37° C. 1 hour
T1 construct: the cell line (RMA-S) that expresses K^b and D^b molecules; endogenous in cells; host or cells: RMA-S cells
T1 sequence (P01901 22-369): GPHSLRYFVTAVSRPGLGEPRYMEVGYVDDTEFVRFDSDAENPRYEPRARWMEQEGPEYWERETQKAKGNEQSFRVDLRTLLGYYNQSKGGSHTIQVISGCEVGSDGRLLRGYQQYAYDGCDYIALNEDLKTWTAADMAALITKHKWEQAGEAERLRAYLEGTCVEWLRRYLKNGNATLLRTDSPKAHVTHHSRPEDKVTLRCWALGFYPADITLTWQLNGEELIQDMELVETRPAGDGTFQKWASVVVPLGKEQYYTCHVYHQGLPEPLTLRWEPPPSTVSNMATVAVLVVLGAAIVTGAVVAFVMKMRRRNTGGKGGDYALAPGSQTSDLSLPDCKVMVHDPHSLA
T1 sequence (P01887 21-119 partner): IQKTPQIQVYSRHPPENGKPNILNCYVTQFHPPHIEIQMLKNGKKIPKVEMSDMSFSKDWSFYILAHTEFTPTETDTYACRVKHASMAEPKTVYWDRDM
Procedure: (§1) Thus, RMA-S was cultured at 26° C. to effect high expression of MHC class I, and the cultured cells were incubated with the solutions of the test peptides at 37° C. for 1 hour. […] Then using fluorescently labeled monoclonal antibody that recognizes MHC class I (K^b, D^b), RMA-S cells were stained. Finally, the binding dissociation constant was calculated from the average amount of fluorescence per cell (Immunol. Lett., 47: 1, 1995).

induced CTL = assay: FACS analysis of surface markers of induced CTL, Example 3; type: cell-based; settings: human CTL, FIGS. 5 to 10
Procedure: One week later, T2 cells that were irradiated after incubating for 1 hour with the peptide (20 μg/ml) were added to the above culture system for restimulation. From the following day, human IL-2 (final concentration 100 JRU/ml) was added to the culture.
Subsequently, after repeating, for five times, stimulation with the T2 cells that were irradiated after being pulsed with the peptide, a killing assay was performed using, as the target, the T2 cells pulsed with the peptide or the T2 cells not pulsed with the peptide. The surface markers of the induced CTL were subjected to FACS analysis.

HLA-A* 0201 = target: T2, HLA-A* 0201 (Homo sapiens, UniProt P04439, D140Y/D185E/D98H/E176V/E277Q/G131W/G231S/I119V/I121R/I166T/I218V/L300P/L318F/N151K/N90K/P208A/P217A/Q86G/Q94H/R138H/R169H/T345S); assay: Binding of peptides to HLA-A* 0201 on T2 cells (FACS, binding dissociation constant); settings: 37° C. 1 hour
T2 construct: T2 cells having the empty HLA-A* 0201 molecules; endogenous in cells; host or cells: T2 cells

D^b of MHC class I = target: T3, D^b of MHC class I (Mus musculus, UniProt P01899); assay: Binding of peptides to D^b on RMA-S cells (fluorescent antibody staining, binding dissociation constant)
T3 construct: the cell line (RMA-S) that expresses K^b and D^b molecules; endogenous in cells; host or cells: RMA-S cells
T3 sequence (P01899 25-362): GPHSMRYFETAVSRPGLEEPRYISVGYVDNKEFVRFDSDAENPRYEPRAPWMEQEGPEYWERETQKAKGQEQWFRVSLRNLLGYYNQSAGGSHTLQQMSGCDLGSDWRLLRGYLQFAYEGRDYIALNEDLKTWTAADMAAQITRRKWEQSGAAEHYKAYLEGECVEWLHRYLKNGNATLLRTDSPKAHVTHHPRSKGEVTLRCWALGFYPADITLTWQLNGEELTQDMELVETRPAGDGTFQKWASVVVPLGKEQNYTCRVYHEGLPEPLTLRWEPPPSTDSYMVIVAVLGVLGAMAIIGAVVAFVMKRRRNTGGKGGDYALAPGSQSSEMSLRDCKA
T3 sequence (P01887 21-119 partner): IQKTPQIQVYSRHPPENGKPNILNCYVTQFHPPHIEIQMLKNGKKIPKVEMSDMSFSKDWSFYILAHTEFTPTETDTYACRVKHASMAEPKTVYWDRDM
Procedure: Thus, RMA-S was cultured at 26° C. to effect high expression of MHC class I, and the cultured cells were incubated with the solutions of the test peptides at 37° C. for 1 hour. […] Then using fluorescently labeled monoclonal antibody that recognizes MHC class I (K^b, D^b), RMA-S cells were stained.

[1] = target: T4, K^b of mouse MHC class I, on RMA-S cells (mouse, UniProt P01887 21-119; P01901 22-369); assay: MHC stabilisation on RMA-S cells, staining with fluorescent anti-MHC class I antibody, flow cytometry
T4 construct: whole, on cells; Empty MHC class I on RMA-S cells cultured at 26 C; also called H-2K^b
T4 sequence (MHC heavy, looked up): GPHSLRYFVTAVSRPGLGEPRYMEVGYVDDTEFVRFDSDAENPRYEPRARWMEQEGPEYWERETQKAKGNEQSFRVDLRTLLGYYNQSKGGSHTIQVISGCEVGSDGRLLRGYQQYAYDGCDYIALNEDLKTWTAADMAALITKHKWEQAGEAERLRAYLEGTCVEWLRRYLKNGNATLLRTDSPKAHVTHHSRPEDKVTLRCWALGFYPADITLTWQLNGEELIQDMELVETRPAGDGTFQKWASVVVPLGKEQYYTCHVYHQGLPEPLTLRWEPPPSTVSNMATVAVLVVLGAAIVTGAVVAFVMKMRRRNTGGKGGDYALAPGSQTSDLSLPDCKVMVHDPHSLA
T4 sequence (b2m, looked up): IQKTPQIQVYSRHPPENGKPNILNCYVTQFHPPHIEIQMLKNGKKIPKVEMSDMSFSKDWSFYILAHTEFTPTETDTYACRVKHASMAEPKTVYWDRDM
Procedure: as §1

[2] = target: T5, D^b of mouse MHC class I, on RMA-S cells (mouse, UniProt P01887 21-119; P01899 25-362); assay: as above
T5 construct: whole, on cells; Empty MHC class I on RMA-S cells cultured at 26 C; also called H-2D^b
T5 sequence (MHC heavy, looked up): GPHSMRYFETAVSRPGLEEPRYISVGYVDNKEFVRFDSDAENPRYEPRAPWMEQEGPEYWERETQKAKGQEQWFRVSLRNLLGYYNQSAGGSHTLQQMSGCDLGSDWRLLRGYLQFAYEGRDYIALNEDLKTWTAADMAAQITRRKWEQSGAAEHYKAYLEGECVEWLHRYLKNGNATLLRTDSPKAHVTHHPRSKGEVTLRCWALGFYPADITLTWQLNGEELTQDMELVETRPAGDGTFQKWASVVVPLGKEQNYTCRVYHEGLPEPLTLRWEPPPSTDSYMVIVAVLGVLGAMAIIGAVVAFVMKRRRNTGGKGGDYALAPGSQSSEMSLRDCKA
T5 sequence (b2m, looked up): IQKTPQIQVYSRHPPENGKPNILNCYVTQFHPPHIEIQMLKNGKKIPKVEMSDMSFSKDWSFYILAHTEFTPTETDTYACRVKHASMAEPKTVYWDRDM
Procedure: as §1

HLA-A* 0201, on T2 cells = target: T6, HLA-A* 0201, on T2 cells (human); assay: peptide binding to empty HLA-A*0201 on T2 cells, staining with fluorescent anti-HLA-A2.1 antibody, FACS
T6 construct: whole, on cells; Empty HLA-A*0201 molecules on T2 cells; also called HLA-A2.1; A* 0201 of human HLA
Procedure: The above peptides and T2 cells having the empty HLA-A* 0201 molecules (J. Immunol., 150: 1763, 1993; Blood, 88: 2450, 1996) were incubated at 37° C. for 1 hour, and then the T2 cells were stained with fluorescently labeled monoclonal antibody that recognizes HLA-A2.1 to calculate the binding dissociation constant based on the average amount of fluorescence per cell in the FACS analysis.

[3] = RMA-S cells, peptide 37° C. 1 hour, read-out: binding dissociation constant (Kd value) with D^b (converted)

GASAYGSL [K^b 45]
Kd (K^b of MHC class I): 26.4 µM

SLGEQQYSV [WH 187]
surface markers of induced CTL (CD4, CD8) (induced CTL): The CD4-positive cells and the CD8-positive cells were almost equal in the number | Kd (HLA-A* 0201): 7.61 µM

YSSDNLYQM [D^b 221]
Kd (D^b of MHC class I; [3]): 1.76 µM

CMTWNQMNL [D^b 235]
Kd (D^b of MHC class I; [3]): 0.715 µM

CNKRYFKL [K^b 330]
Kd (K^b of MHC class I): 1.73 µM

CSCC[C@H](NC(=O)[C@@H](N)CCCNC(=N)N)C(=O)N[C@@H](Cc1ccccc1)C(=O)N1CCC[C@H]1C(=O)N[C@@H](CC(N)=O)C(=O)N[C@@H](C)C(=O)N1CCC[C@H]1C(=O)N[C@@H](Cc1ccc(O)cc1)C(=O)N[C@@H](CC(C)C)C(=O)O [D^b 126]
Kd (D^b of MHC class I): 0.521 µM

B1: K^b 45 peptide (peptide)
peptide: GASAYGSL
log of binding dissociation constant (Kd) [1]: -4.58 log

B2: D^b 235 peptide (peptide)
peptide: CMTWNQMNL
log of binding dissociation constant (Kd) [2]: -6.15 log

B3: D^b 221 peptide (peptide)
peptide: YSSDNLYQM
log of binding dissociation constant (Kd) [2]: -5.75 log

B4: D^b 126 peptide (peptide)
peptide: RMFPNAPYL
notes: It was tested on both H-2D^b and HLA-A*0201
log of binding dissociation constant (Kd) [2]: -6.28 log

B5: WH 187 peptide (peptide)
peptide: SLGEQQYSV
Kd (HLA-A* 0201, on T2 cells): 7.61 µM

B6: K^b 330 peptide (peptide)
peptide: CNKRYFKL
log of binding dissociation constant (Kd) [1]: -5.76 log
